Assay results as given in US6911446B2, “Methods of modulating serine/threonine protein kinase function with quinazoline-based compounds” (Sugen, Inc., priority 1997, dated 2005).

Test system: 3T3/H-Ras (NIH 3T3 clone 7 cells expressing genomic fragment of oncogenic H-Ras)
Test: Growth of NIH 3T3 cells over expressing H-Ras (SRB)
Format: cell-based
Conditions: Mus musculus, NIH3T3, 72 h, growth of 3T3/H-Ras cells, 3 days with compound
Experimental: The following assay measures growth rates for NIH-3T3 cells expressing RAS. The purpose of the assay is to determine the effects of compounds on the growth of NIH 3T3 cells over expressing H-Ras.
• 96-well flat bottom sterile plates • 96-well round bottom sterile plates • sterile 25 mL or 100 mL reservoir • pipets, multi-channel pipetman • sterile pipet tips • sterile 15 mL and 50 mL tubes Reagents • 0.4% SRB in 1% acetic acid • 10 mM Tris base • 10% TCA • 1% acetic acid • sterile DMSO (Sigma) • compound in DMSO (100 mM or less stock solution) • Trypsin-EDTA (GIBCO BRL) Cell Line: 3T3/H-Ras (NIH 3T3 clone 7 cells expressing genomic fragment of oncogenic H-Ras).
The cells can be constructed using the following protocol: • 1. Subclone a gene fragment encoding Ras into a commercially available vector that will stably transfect NIH-3T3 cells. The fragment is from the genomic transforming allele of cHa-ras. • 2. Transfect NIH-3T3 cells with the subcloned vector by a calcium phosphate method. Select cells expressing the Ras construct in 2% serum in DMEM. Visible foci are observed after 2 weeks. Pool the transformed cells to generate a stably transformed cell line. Growth Medium: 2% calf serum/DMEM+2 mM glutamine, Pen/Strep Protocol: Day 0: Cell Plating:
This part of assay is carried out in a laminar flow hood. • 1. Trypsinize cells. Transfer 200 μL of cell suspension to 10 mL of isotone. Count cells with a Coulter Counter. • 2. Dilute cells in growth medium to 60,000 cell/mL. Transfer 100 μL of cells to each well in a 96-well flat bottom plate to give 6000 cells/well. • 3. Use half of plate (4 rows) for each comound and quadruplicate wells for each compound concentration, and a set of 4 wells for medium control. • 4. Gently shake plates to allow for uniform attachment of the cells. • 5. Incubate the plates at 37° C. in a 10% CO2 incubator. Day 1: Addition of Compound:
This part of assay is carried out in a laminar flow hood. • 1. In a 96-well round bottom plate, add 120 μL of growth medium containing 2×final % DMSO found in highest screening concentration of compound to columns 1 to 11. For example, if the highest concentration is […], and this is made from a 100 mM stock, 1×DMSO is 0.1%, so 2×DMSO is 0.2%. This plate is used to titrate out the compound, 4 rows per compound. • 2. In a sterile 15 mL tube, make a 2×solution of the highest screening concentration of compound in growth medium plus 2×DMSO. 1 mL per cell line is needed. The starting concentration of the compound is usually 100 μM but this concentration may vary depending upon the solubility of the compound. • 3. Transfer 240 μL of the 2×starting compound solution to qudruplicate wells in column 12 of the 96-well round bottom plate. Do 1:2 serial dilutions across the plate from right to left by transferring […] from column 12 to column 11, column 11 to 10 and so on through column 2. Transfer 100 μL of compound dilutions, and 100 μL of medium in column 1, onto 100 μL medium on cells in corresponding wells of 96-well flat bottom plate. Total volume per well should be 200 μL. • 4. Return the plate to the incubator and incubate for 3 days. Day 4: Development of Assay
This party of assay is carried out on the bench. • 1. Aspirate or pour off medium. Add 200 μL cold 10% TCA to each well to fix cells. Incubate plate for at least 60 min. at 4° C. • 2. Discard TCA and rinse wells 5 times with tap water. Dry plates upside down on paper towels. • 3. Stain cells with 100 μL/well 0.4% SRB for 10 min. • 4. Pour of SRB and rinse wells 5 times with 1% acetic acid. Dry plates completely upside down on paper towels. • 5. Solubilize dye with 100 μL/well 10 mM Tris base for 5-10 min. on shaker. • 6. Read plates on Dynatech ELISA Plate REader at 570 nm with reference at 630 nm.

## Nc1nc(N)c2c(Oc3ccccc3)cccc2n1 [Compound A-1, 2,4-Diamino-5-phenoxyquinazoline]
  IC50: 0.85 µM

## COc1ccc(Oc2cccc3nc(N)nc(N)c23)cc1 [Compound A-6, 2,4-Diamino-5-(4-methoxyphenoxy)quinazoline]
  IC50: > 100 µM

## Nc1nc(N)c2c(Oc3ccc(F)cc3)cccc2n1 [Compound A-7, 2,4-Diamino-5-(4-fluorophenoxy)quinazoline]
  IC50: > 100 µM

## CC(C)(C)c1ccc(Oc2cccc3nc(N)nc(N)c23)cc1 [Compound A-8, 2,4-Diamino-5-(4-tert-butylphenoxy)quinazoline]
  IC50: 22.3 µM

## Cc1ccc(Oc2cccc3nc(N)nc(N)c23)cc1 [Compound A-9, 2,4-Diamino-5-(4-methylphenoxy)quinazoline]
  IC50: 20.4 µM

## COc1ccccc1Oc1cccc2nc(N)nc(N)c12 [Compound A-22, 2,4-Diamino-5-(2-methoxyphenoxy)quinazoline]
  IC50: 0.4 µM

## COc1cccc(Oc2cccc3nc(N)nc(N)c23)c1 [Compound A-23, 2,4-Diamino-5-(3-methoxyphenoxy)quinazoline]
  IC50: 0.6 µM

## Nc1ncnc2cccc(Oc3ccc(OCc4ccccc4)cc3)c12 [Compound A-28, 4-Amino-5-(4-benzyloxyphenoxy)quinazoline]
  IC50: 6 µM
